{"source": "paper PMC12186298", "about": "“Phase 1 clinical trial of eneboparatide, a novel PTH receptor 1 agonist” (Endocrine Connections, 2025)", "key": {"healthy subjects": {"system": "healthy subjects", "test": "Pharmacodynamics (serum calcium, phosphorus, endogenous PTH, urine), Part A SAD", "format": "in vivo, human", "experimental": "(§1) Seven sequential cohorts were included in Part A. The first cohort was single-blind and included four subjects, of which three subjects were randomized to receive 5 μg eneboparatide and one subject was randomized to receive placebo. […] Subjects in Part A were admitted to the phase 1 study centre on day 1 and received the study drug at the clinical site on day 1 as a single, subcutaneous abdominal injection in the morning. They were discharged on day 4 and were asked to return for a follow-up (FU) visit on day 5–8.\nBlood samples were taken on day 1 at pre-dose, at several time points post-dose up to day 4 and at FU (Part A), on day 1–14 (pre-dose), and day 15–17 and at FU (Part B) for the analysis of total sCa, albumin-adjusted serum calcium (ADsCa), and sPh. These parameters were also measured on day 1, 7 and 14 at several time points post-dose. Samples for serum creatinine were taken at predefined time points to allow for calculation of fractional excretion of calcium (FECa). Endogenous serum PTH(1–84) was measured on day 1 (pre-dose and 12 h post-dose), day 2–4 and at FU (Part A), on pre-dose on day 1, 7, and 14 and on day 15–17 and FU (Part B). In Part B, additional blood samples were taken on day 1, day 14 and at FU for the analysis of serum bone turnover biomarkers, including carboxy-terminal telopeptide of type I collagen (s-CTx), and procollagen type 1 amino-terminal propeptide (P1NP).\nUrine collection was performed over 24 h for the analysis of calcium and creatinine on day 1–3 and at FU (Part A) and day 1, day 7, day 14 and at FU (Part B). FECa (%) was calculated by the formula: FECa = (urine calcium/serum calcium)/(urine creatinine/serum creatinine)."}, "[1]": {"test": "Plasma pharmacokinetics, single ascending dose (Part A)", "format": "in vivo, human", "conditions": "for AUC(0–∞) / Cmax / Tmax: Part A SAD; for Cmax: immunoaffinity LC-MS/MS, mean ± SD", "experimental": "as §1\nPlasma samples were collected pre-dose and at scheduled time points up to 6 h post-dose on day 1 (Parts A and B) and day 14 (Part B). The analysis of eneboparatide in plasma samples was performed at QPS (The Netherlands) using a hybrid immunoaffinity liquid chromatography–mass spectrometry/mass spectrometry (LC-MS/MS) method, with a validated lower limit of quantification (LLOQ) of 50 pg/mL."}, "patients with cHP": {"system": "patients with cHP", "parameters": "method as in PMID 38449442", "conditions": "3 months; cited from earlier work"}}, "note": "Peptide text beside a SMILES is read from it."}
{"compound": "CC[C@H](C)[C@H](NC(=O)[C@H](CCC(=O)O)NC(=O)[C@H](C)NC(=O)[C@@H](NC(=O)[C@H](Cc1c[nH]cn1)NC(=O)[C@@H](NC(=O)[C@H](CCC(=O)O)NC(=O)[C@H](C)NC(=O)[C@@H](NC(=O)[C@H](CC(C)C)NC(=O)[C@H](CCCCN)NC(=O)[C@H](Cc1c[nH]cn1)NC(=O)[C@H](CC(C)C)NC(=O)[C@H](Cc1ccccc1)NC(=O)[C@H](C)NC(=O)[C@H](CCCNC(=N)N)NC(=O)[C@H](CCCNC(=N)N)NC(=O)[C@H](CCCNC(=N)N)NC(=O)[C@H](C)NC(=O)[C@H](CC(=O)O)NC(=O)[C@H](CCC(N)=O)NC(=O)[C@@H](NC(=O)[C@H](Cc1c[nH]c2ccccc12)NC(=O)[C@H](CCCCN)NC(=O)[C@H](C)NC(=O)[C@H](CCCNC(=N)N)NC(=O)[C@H](CCC(N)=O)NC(=O)[C@H](Cc1c[nH]cn1)NC(=O)[C@H](CCSC)NC(=O)[C@H](CC(C)C)NC(=O)[C@H](CCC(N)=O)NC(=O)[C@@H](NC(=O)[C@H](CCC(=O)O)NC(=O)[C@H](C)NC(=O)[C@@H](NC(=O)[C@H](C)N)C(C)C)[C@@H](C)CC)[C@@H](C)CC)[C@@H](C)CC)[C@@H](C)CC)[C@@H](C)O)C(=O)O", "note": "[eneboparatide] (H-AVAEIQLMHQRAKWIQDARRRAFLHKLIAEIHTAEI-OH; N-terminus and C-terminus assumed)", "values": [{"measurement": "urinary excretion of calcium or phosphorus", "setting": "healthy subjects; increasing single doses", "result": "no apparent dose-related changes"}, {"measurement": "duration of elevation of ADsCa post-dose vs placebo", "setting": "healthy subjects; single sc 20 μg, moderate but persistent elevation", "result": "up to 18 h"}, {"measurement": "effect on physiological decline in ADsCa", "setting": "healthy subjects; single sc 5 and 10 μg", "result": "blunted this physiological decline in ADsCa during the first 6 h post-dosing"}, {"measurement": "persistence of dose-dependent decrease of endogenous sPTH(1–84)", "setting": "healthy subjects; single sc 20–120 μg", "result": "24 to 72", "unit": "h"}, {"measurement": "AUC(0–∞)", "setting": "[1]; single sc 5 μg, n = 2, mean ± SD", "result": "0.399 ± 0.032", "unit": "ng·h/mL"}, {"measurement": "Cmax", "setting": "[1]; single sc 5 μg, n = 2, plasma", "result": "6.82 ± 2.19", "unit": "ng/mL"}, {"measurement": "AUC(0–∞)", "setting": "[1]; single sc 10 μg, n = 4, mean ± SD", "result": "5.20 ± 3.38", "unit": "ng·h/mL"}, {"measurement": "Cmax", "setting": "[1]; single sc 10 μg, n = 4, plasma", "result": "11.4 ± 4.32", "unit": "ng/mL"}, {"measurement": "AUC(0–∞)", "setting": "[1]; single sc 20 μg, n = 6, mean ± SD", "result": "9.55 ± 4.12", "unit": "ng·h/mL"}, {"measurement": "Cmax", "setting": "[1]; single sc 20 μg, n = 6, plasma", "result": "24.1 ± 8.18", "unit": "ng/mL"}, {"measurement": "AUC(0–∞)", "setting": "[1]; single sc 40 μg, n = 2, mean ± SD", "result": "10.4 ± 13.4 (n = 2) ng·h/mL"}, {"measurement": "Cmax", "setting": "[1]; single sc 40 μg, n = 3, plasma", "result": "26.3 ± 4.79", "unit": "ng/mL"}, {"measurement": "AUC(0–∞)", "setting": "[1]; single sc 60 μg, n = 6, mean ± SD", "result": "16.8 ± 14.7", "unit": "ng·h/mL"}, {"measurement": "Cmax", "setting": "[1]; single sc 60 μg, n = 6, plasma", "result": "28.5 ± 10.8", "unit": "ng/mL"}, {"measurement": "AUC(0–∞)", "setting": "[1]; single sc 90 μg, n = 6, mean ± SD", "result": "31.7 ± 12.5", "unit": "ng·h/mL"}, {"measurement": "Cmax", "setting": "[1]; single sc 90 μg, n = 6, plasma", "result": "37.5 ± 11.6", "unit": "ng/mL"}, {"measurement": "AUC(0–∞)", "setting": "[1]; single sc 120 μg, n = 6, mean ± SD", "result": "26.1 ± 16.4", "unit": "ng·h/mL"}, {"measurement": "Cmax", "setting": "[1]; single sc 120 μg, n = 6, plasma", "result": "57.4 ± 28.7", "unit": "ng/mL"}, {"measurement": "median time to maximum plasma concentration", "setting": "[1]; Parts A and B, sc, all doses", "result": "5 to 20", "unit": "min"}, {"measurement": "detectability of eneboparatide in the circulation after administration", "setting": "[1]; SAD, single sc 10 to 120 μg, LLOQ 50 pg/mL", "result": "almost undetectable beyond 2 h after administration"}, {"measurement": "Tmax", "setting": "[1]; human, plasma, 5 ug, single sc 5 μg, n = 2, median", "result": 15, "unit": "min"}, {"measurement": "Tmax", "setting": "[1]; human, plasma, 10 ug, single sc 10 μg, n = 4, median", "result": 13.2, "unit": "min"}, {"measurement": "Tmax", "setting": "[1]; human, plasma, 20 ug, single sc 20 μg, n = 6, median", "result": 6, "unit": "min"}, {"measurement": "Tmax", "setting": "[1]; human, plasma, 40 ug, single sc 40 μg, n = 3, median", "result": 4.8, "unit": "min"}, {"measurement": "Tmax", "setting": "[1]; human, plasma, 60 ug, single sc 60 μg, n = 6, median", "result": 10.2, "unit": "min"}, {"measurement": "Tmax", "setting": "[1]; human, plasma, 90 ug, single sc 90 μg, n = 6, median", "result": 19.8, "unit": "min"}, {"measurement": "Tmax", "setting": "[1]; human, plasma, 120 ug, single sc 120 μg, n = 6, median", "result": 19.8, "unit": "min"}, {"measurement": "half-life", "setting": "[1]; human, plasma, normal subjects, sc, read-out: circulating half-life", "result": "< 120", "unit": "min"}, {"measurement": "tolerability and independence from conventional therapy", "setting": "patients with cHP", "result": "well-tolerated and allowed independence from conventional therapy"}]}
